Consider 11 compounds from ChEMBL document CHEMBL1201862, “PubChem BioAssay data set” (2004).

Molecules are shown by their SMILES.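 Interpolation was linear, between the two tested concentrations surrounding the appropriate level; five concentrations were tested over 48 hours in 96-well plates. The concentration for 50% growth inhibition is given as GI50.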 Activity calls are given as the source filed them. No stated cut-off is given here; in the data, active = GI50 up to about 1.1 µM and inactive = higher.

Among the test systems are 786-0; CAKI-1; CCRF-CEM; DU-145; HCT-116; HCT-15; HOP-62; HOP-92; HT-29; IGROV-1; MDA-MB-435; OVCAR-3; OVCAR-8; SF-295; SK-MEL-2; SN12C; SR; SW-620; A498; LOX IMVI.
Holding throughout (test): inhibition of tumour cell growth, NCI panel, 48 h

In the case of `O=C(O)c1cc2ccccc2c(/N=N/c2ccc(S(=O)(=O)O)cc2)c1O`, the GI50 was > 100 µM (inactive) in the assay with 786-0; > 100 µM (inactive) in the assay with CAKI-1; > 100 µM (inactive) with CCRF-CEM; > 100 µM (inactive) with DU-145; > 100 µM (inactive) with HCT-116; over 100 µM with HCT-15. In addition, the GI50 in the assay with HOP-62, with HOP-92, in the assay on HT-29, in the assay with IGROV-1, in the assay with MDA-MB-435 and in the assay on OVCAR-3 was > 100 µM (inactive) in each case. Besides, the GI50 in the assay with OVCAR-8, in the assay with SF-295, in the assay with SK-MEL-2, with SN12C, with SR and in the assay on SW-620 was > 100 µM (inactive) each time.

In the case of `CCc1c(-c2ccc(OC)cc2)oc(OC)c(C)c1=O`, the GI50 in the assay on 786-0 was > 100 µM (inactive); in the assay on A498 it was 68.9 µM (inactive); with CAKI-1 it was 99.1 µM (inactive); with CCRF-CEM, 41 µM (inactive); in the assay with DU-145 it was > 100 µM (inactive); with HCT-116, 55.1 µM (inactive). For the same compound, the GI50 is over 100 µM with HCT-15; > 100 µM (inactive) with HOP-62; 97.1 µM (inactive) in the assay with HOP-92; 91.4 µM (inactive) with HT-29; > 100 µM (inactive) with IGROV-1; 63.7 µM (inactive) in the assay with LOX IMVI. In addition, the GI50 is > 100 µM (inactive) in the assay on MDA-MB-435; 62.8 µM (inactive) in the assay with OVCAR-3; > 100 µM (inactive) with OVCAR-8; > 100 µM (inactive) in the assay with SF-295; > 100 µM (inactive) with SK-MEL-2; > 100 µM (inactive) in the assay with SN12C. In the assay on SW-620, the GI50 was > 100 µM (inactive).

`O=[N+]([O-])C(=C(Nc1ccccc1)Nc1ccccc1)C(Cl)=C(Cl)Cl`: the GI50 was 15.8 µM (inactive) in the assay on 786-0; 9.93 µM (inactive) with A498; 17.1 µM (inactive) in the assay with CAKI-1; 8.04 µM (inactive) with CCRF-CEM; 17.5 µM (inactive) in the assay on DU-145; 12.5 µM (inactive) with HCT-116. Also, the GI50 in the assay on HCT-15 was 16.3 µM; with HOP-62, 21.9 µM (inactive); in the assay with HOP-92, 15.8 µM (inactive); in the assay with HT-29, 16.4 µM (inactive); in the assay with IGROV-1, 12.9 µM (inactive); in the assay with LOX IMVI, 8.77 µM (inactive). Further, the GI50 in the assay with MDA-MB-435 is 15.3 µM (inactive); in the assay on OVCAR-3, 16.5 µM (inactive); with OVCAR-8 it was 22.9 µM (inactive); with SF-295, 17.8 µM (inactive); in the assay on SK-MEL-2 it was 13.1 µM (inactive); with SN12C, 17.1 µM (inactive). The GI50 with SW-620 is 14.5 µM (inactive).

As for `O=c1oc2ccc3ccccc3c2cc1-c1cn2c(n1)sc1ccccc12`, the GI50 with 786-0, in the assay with A498, with CAKI-1, in the assay on CCRF-CEM, with DU-145 and in the assay with HCT-116 was > 100 µM (inactive) throughout. The GI50 in the assay with HCT-15 was over 100 µM; in the assay with HOP-62, > 100 µM (inactive); in the assay with HOP-92 it was 55.2 µM (inactive); with HT-29 it was > 100 µM (inactive); with IGROV-1, > 100 µM (inactive); in the assay on LOX IMVI, > 100 µM (inactive). Further, the GI50 with MDA-MB-435, in the assay on OVCAR-3, in the assay with OVCAR-8, with SF-295, with SK-MEL-2 and with SW-620 was > 100 µM (inactive) each time.

For the compound `COc1cc(/C=C/C(=O)Oc2ccccc2)ccc1C(=O)O/C=C/c1ccccc1`, the GI50 is > 100 µM (inactive) in the assay on 786-0; > 21.5 µM (inactive) in the assay on A498; > 100 µM (inactive) with CAKI-1; 17.7 µM (inactive) in the assay on CCRF-CEM; > 100 µM (inactive) in the assay on DU-145; > 100 µM (inactive) in the assay with HCT-116. For the same compound, the GI50 in the assay with HCT-15 was over 100 µM; in the assay with HOP-62, > 100 µM (inactive); with HOP-92, > 100 µM (inactive); in the assay on HT-29 it was > 100 µM (inactive); with IGROV-1, > 100 µM (inactive); in the assay on LOX IMVI it was > 100 µM (inactive). Also, the GI50 is > 100 µM (inactive) with MDA-MB-435; > 31.6 µM (inactive) in the assay on OVCAR-3; > 100 µM (inactive) in the assay with OVCAR-8; > 100 µM (inactive) in the assay with SF-295; > 100 µM (inactive) in the assay with SK-MEL-2; > 100 µM (inactive) with SN12C. Besides, in the assay on SW-620, the GI50 is > 100 µM (inactive).

As to `CC(C)c1ccc(/C=C2\CSCC3=C2N=C2SCC(=O)N2C3c2ccc(C(C)C)cc2)cc1` (centres undefined), the GI50 with 786-0 is > 100 µM (inactive); in the assay on CAKI-1, > 100 µM (inactive); with CCRF-CEM, 68.1 µM (inactive); with DU-145, > 100 µM (inactive); in the assay on HCT-116, > 100 µM (inactive); in the assay with HCT-15, over 100 µM. In addition, the GI50 in the assay on HOP-62, in the assay on HOP-92, with HT-29, with IGROV-1, in the assay on LOX IMVI and in the assay with MDA-MB-435 was > 100 µM (inactive) throughout. Further, the GI50 in the assay on OVCAR-3 was > 100 µM (inactive); in the assay with OVCAR-8 it was > 100 µM (inactive); with SF-295, > 100 µM (inactive); in the assay on SK-MEL-2, > 100 µM (inactive); with SN12C it was 92.7 µM (inactive); with SR it was 77.4 µM (inactive). For the same compound, the GI50 in the assay with SW-620 was > 100 µM (inactive).

As for `CC1(C)COC(c2cccc(C3=NC(C)(C)CO3)c2Br)=N1`, the GI50 in the assay on 786-0 was > 100 µM (inactive); in the assay with CAKI-1, > 100 µM (inactive); in the assay on DU-145, > 100 µM (inactive); in the assay on HCT-116, > 100 µM (inactive); with HCT-15 it was over 100 µM; with HOP-62 it was > 100 µM (inactive). In addition, the GI50 with HOP-92, with HT-29, with IGROV-1, in the assay with LOX IMVI, in the assay with MDA-MB-435 and in the assay with OVCAR-8 was > 100 µM (inactive) throughout. Besides, the GI50 in the assay with SK-MEL-2, in the assay with SR and with SW-620 was > 100 µM (inactive) in each case.

On to `C/C(=N\NC(=O)Nc1ccccc1Cl)c1ccc(O)cc1`, for which the GI50 with 786-0 was > 100 µM (inactive); in the assay with CAKI-1, > 100 µM (inactive); in the assay with CCRF-CEM, > 100 µM (inactive); with DU-145, > 100 µM (inactive); in the assay on HCT-116, 48.6 µM (inactive); in the assay with HCT-15, 2.28 µM. In addition, the GI50 in the assay with HOP-92 was > 100 µM (inactive); with HT-29, > 100 µM (inactive); in the assay with IGROV-1, > 100 µM (inactive); with LOX IMVI, 45.6 µM (inactive); in the assay on MDA-MB-435, > 100 µM (inactive); with OVCAR-3, > 100 µM (inactive). The GI50 in the assay with OVCAR-8 was > 100 µM (inactive); in the assay with SF-295, > 100 µM (inactive); with SK-MEL-2, > 100 µM (inactive); in the assay with SN12C it was > 100 µM (inactive); in the assay with SR, 4.34 µM (inactive); with SW-620, > 100 µM (inactive).

Turning to `C/C(=N/NC(=S)NCCc1ccccn1)c1cnccn1`, the GI50 with 786-0 was 14.6 µM (inactive); with CAKI-1, 14.1 µM (inactive); in the assay on CCRF-CEM, 2.64 µM (inactive); with DU-145 it was 17.8 µM (inactive); in the assay on HCT-116, 23.2 µM (inactive); in the assay on HOP-62 it was 31.2 µM (inactive). Moreover, the GI50 in the assay on HOP-92 is 49.3 µM (inactive); with HT-29, 3.78 µM (inactive); in the assay with IGROV-1, 19 µM (inactive); in the assay on LOX IMVI, 9.66 µM (inactive); in the assay on MDA-MB-435, 53.3 µM (inactive); in the assay on OVCAR-3, 32.1 µM (inactive). Also, the GI50 with SF-295 was 24.4 µM (inactive); in the assay on SK-MEL-2 it was > 100 µM (inactive); in the assay on SN12C it was 21.9 µM (inactive); in the assay on SR, 2.44 µM (inactive); with SW-620, 11.9 µM (inactive).

In the case of `Fc1nc(Sc2ncnc3nc[nH]c23)nc(-c2c3ccccc3c3sc4ccccc4n23)n1`, the GI50 in the assay with 786-0 is > 100 µM (inactive); in the assay with A498 it was > 100 µM (inactive); in the assay on CAKI-1, > 100 µM (inactive); in the assay on CCRF-CEM, 40.7 µM (inactive); with DU-145 it was > 100 µM (inactive); with HCT-116 it was > 100 µM (inactive). Besides, the GI50 in the assay with HCT-15 was over 100 µM; in the assay on HOP-62 it was > 100 µM (inactive); with HOP-92, > 100 µM (inactive); in the assay with HT-29, > 100 µM (inactive); in the assay with IGROV-1 it was > 100 µM (inactive); with LOX IMVI it was 80 µM (inactive). Besides, the GI50 in the assay on MDA-MB-435, in the assay on OVCAR-3, with OVCAR-8, in the assay with SF-295, with SK-MEL-2 and with SN12C was > 100 µM (inactive) in each case. In addition, the GI50 in the assay with SW-620 was > 100 µM (inactive).

`O=C1NC(=O)[C@H]2C3C=CC([C@@H]12)[C@@H]1C(=O)NC(=O)[C@H]31`: the GI50 with 786-0 was > 100 µM (inactive); in the assay on CAKI-1 it was > 100 µM (inactive); in the assay on CCRF-CEM, > 100 µM (inactive); with DU-145 it was > 100 µM (inactive); in the assay on HCT-116, > 100 µM (inactive); in the assay on HCT-15, over 100 µM. Further, the GI50 in the assay with HOP-62, in the assay with HOP-92, in the assay with IGROV-1, in the assay with LOX IMVI, in the assay on MDA-MB-435 and in the assay on OVCAR-3 was > 100 µM (inactive) each time. Moreover, the GI50 with OVCAR-8, in the assay on SF-295, in the assay on SK-MEL-2, in the assay with SN12C, with SR and with SW-620 was > 100 µM (inactive) each time.
